Values after ≈ are worked out from the molar mass of the structure shown. Like-named read-outs stand apart in the source and are kept apart here.
Legend:
rice plants [1] = experiment: Experiment 2: phytotoxicity to rice plants (pot test, granules); settings: for phytotoxicity rice plant: 25 days
[2] = tested on: Hotarui (Scirpus juncoides); experiment: Experiment 2: herbicidal effects against Hotarui (pot test, granules); format: in vivo; settings: 25 days
barnyard grass = experiment: Experiment 2: herbicidal effects against barnyard grass (pot test, granules); format: in vivo, Echinochloa crus-galli; settings: 2.5 leaf-stage, 25 days
broad-leaf weeds = experiment: Experiment 2: herbicidal effects against broad-leaf weeds (pot test, granules); format: in vivo; settings: 25 days
[3] = tested on: barnyard grass (Echinochloa crus-galli); experiment: Experiment 1: herbicidal effects against barnyard grass (pot test, emulsifiable concentrate); format: in vivo
paddy field weeds = experiment: Experiment 2: herbicidal effects against paddy field weeds, overall; format: in vivo; settings: compared with Molinate (Compound 13)
rice plants [4] = settings: in vivo
[5] = tested on: Mizugayatsuri (Cyperus serotinus); experiment: Experiment 2: herbicidal effects against Mizugayatsuri (pot test, granules); format: in vivo; settings: 25 days
carps = experiment: Experiment 4: subacute toxicity to fish; format: in vivo, 2-year-old carps; settings: 0.2 ppm; 3 weeks
Protocol: (§1) With respect to the compounds according to the present invention and the comparative compounds listed in Table 4, there were conducted tests on subacute toxicity to 2-year-old carps having an average weight of 20 g.
(§2) Ten 2-year-old carps were released in each of 25-liter water tanks equipped with an air-blowing apparatus and acclimatized to the surroundings while feeding for 10 days. Water in each of the water tanks was continuously replaced with fresh water so that the residence time of water in the water tanks is 6 hours. Each test compound was added to a predetermined quantity of supply water to prepare a 0.2 ppm aqueous solution of each compound, and each of the aqueous solutions was continuously added to the water in the tank. After three weeks, the hematocrit values of all the survival carps were determined. The hematocrit value used herein is intended to mean a volume percentage of erythrocyte contained in the blood.

[6] = Experiment 4: subacute toxicity to fish; format: in vivo, 2-year-old carps; settings: carp, water; 0.2 ppm; 3 weeks; read-out: Survival rate after 3 weeks
Protocol: as §1, §2

[7] = Experiment 3: acute toxicity to fish; format: in vivo, Black-carp fry; settings: carp, water; for LC50 at 48 h: read-out: Median lethal concentration TLm (48hrs)
Protocol: With respect to the compounds according to the present invention and the comparative compounds (Compound 10, Compound 12 and Compound 13), there were conducted tests on acute toxicity to carps.
In 25-liter water tanks made of glass was charged 20 liters of water. 12 Black-carp fry were released to each of the water tanks and bred while feeding for 7 days. Then, the whole quantity of water in each of the tanks was replaced with fresh water, and feeding to the carps was stopped. After three days, a prescribed amount of 1 weight % solution of a test compound in acetone was added to water in the water tank.
The number of survival fish in each tank was counted after 24 hours, 48 hours and 96 hours, successively.
The TLm (median tolerance limit=lethal concentration 50%) was determined by the Doudorff's method (Sewage & Ind. Wastes 23 (1951) 1380-1397).

rice plants [8] = settings: in vivo; remark: listed apart in the source

Compound | Herbicidal activity Hotarui (Scirpus juncoides) ([2]; 150 g/10a.) | Herbicidal activity Hotarui (Scirpus juncoides) ([2]; 300 g/10a.) | Herbicidal activity Hotarui (Scirpus juncoides) ([2]; 600 g/10a.) | herbicidal activity (barnyard grass) (barnyard grass; 150 g/10a.) | herbicidal activity (barnyard grass) (barnyard grass; 300 g/10a.) | herbicidal activity (barnyard grass) (barnyard grass; 600 g/10a.) | Herbicidal activity broad-leaf weeds (broad-leaf weeds; 150 g/10a.) | Herbicidal activity broad-leaf weeds (broad-leaf weeds; 300 g/10a.) | Herbicidal activity broad-leaf weeds (broad-leaf weeds; 600 g/10a.) | herbicidal activity (in words) (paddy field weeds) | Herbicidal activity Mizugayatsuri (Cyperus serotinus) ([5]; 150 g/10a.) | Herbicidal activity Mizugayatsuri (Cyperus serotinus) ([5]; 300 g/10a.) | Herbicidal activity Mizugayatsuri (Cyperus serotinus) ([5]; 600 g/10a.) | Average Hematocrit Value of survival fish (carps) [%] | subacute toxicity to carps (in words) (carps) | survival of carps (in words) (carps) | symptoms of anemia in carps (in words) (carps) | survival at 504 h [6] [%] | LC50 at 48 h [7] [µg/mL] | further results
CCN(CC)C(=O)SCCCCl [Compound 10, reference compound] | 4 (70 to 89%) | 4 (70 to 89%) | 5 (more than 90%) | 5 (more than 90%) | 5 (more than 90%) | 5 (more than 90%) | 5 (more than 90%) | 5 (more than 90%) | 5 (more than 90%) | excellent herbicidal activities | 4 (70 to 89%) | 4 (70 to 89%) | 5 (more than 90%) | 16 | high subacute toxicity to carps | extremely low | remarkable symptons of anemia | 80 | > 20 | harmful effects to rice plants (in words) (rice plants [1]): without harmful effects to rice plants; phytotoxicity rice plant (rice plants [1]; 150 g/10a.): 0 (less than 10%); phytotoxicity rice plant (rice plants [1]; 300 g/10a.): 0 (less than 10%); phytotoxicity rice plant (rice plants [1]; 600 g/10a.): 0 (less than 10%); herbicidal activity (barnyard grass) ([3]; in vivo): 5 (key: 5: more than 90%; 4: 70 to 89%; 3: 50 to 69%; 2: 30 to 49%; 10 to 29%; less than 10%); herbicidal activity (in words) ([3]; in vivo): sufficient herbicidal activities; phytotoxicity rice plant (rice plants [4]): 0 (key: 5: more than 90%; 4: 70 to 89%; 3: 50 to 69%; 2: 30 to 49%; 10 to 29%; less than 10%); LC50 at 96 h ([7]; 96 hrs, read-out: Median lethal concentration TLm (96hrs)): 18 µg/mL (≈ 85.8 µM)
CC1CCCCN1C(=O)SCCCCl (stereo not shown) [Compound 12, reference compound] | 4 (70 to 89%) | 5 (more than 90%) | 5 (more than 90%) | 5 (more than 90%) | 5 (more than 90%) | 5 (more than 90%) | 5 (more than 90%) | 5 (more than 90%) | 5 (more than 90%) | excellent herbicidal activities | 4 (70 to 89%) | 4 (70 to 89%) | 5 (more than 90%) | 19 | high subacute toxicity to carps | extremely low | remarkable symptons of anemia | 70 | < 0.5 | herbicidal activity (barnyard grass) ([3]; 1.5 leaf-stage of barnyard grass, 150 g/10a., 25 days): 5 (more than 90%); herbicidal activity (barnyard grass) ([3]; 1.5 leaf-stage of barnyard grass, 300 g/10a., 25 days): 5 (more than 90%); herbicidal activity (barnyard grass) ([3]; 1.5 leaf-stage of barnyard grass, 600 g/10a., 25 days): 5 (more than 90%); herbicidal activity (barnyard grass) ([3]; 3 leaf-stage of barnyard grass, 150 g/10a., 25 days): 5 (more than 90%); herbicidal activity (barnyard grass) ([3]; 3 leaf-stage of barnyard grass, 300 g/10a., 25 days): 5 (more than 90%); herbicidal activity (barnyard grass) ([3]; 3 leaf-stage of barnyard grass, 600 g/10a., 25 days): 5 (more than 90%); herbicidal activity (in words) ([3]; barnyard grass): sufficient herbicidal activities; harmful effects to rice plants (in words) (rice plants [8]): without harmful effects to rice plants; LC50 at 24 h ([7]; 24 hrs, read-out: Median lethal concentration TLm (24hrs)): 1 µg/mL (≈ 4.24 µM)
